Assay results as given in ChEMBL document CHEMBL1123148, “Improved synthesis of 2'-deoxyformycin A and studies of its in vitro activity against mouse lymphoma of T-cell origin” (J Med Chem, 1985).

How the values were obtained:
[1] = Compound evaluated for the inhibitory concentration of S49 Mouse Lymphoma T-cells; type: functional, cell-based
[2] = Compound along with 10 uM of erythro-9-(2-hydroxy-3-nonyl)adenine (EHNA) was tested against mouse lymphoma T-cells; type: functional

SMILES	IC50 [1] [µM]	IC50 [2] [µM]
Nc1ncnc2c1ncn2[C@H]1C[C@H](O)[C@@H](CO)O1 [DEOXYADENOSINE]	180	4.5
Nc1ncnc2c([C@@H]3O[C@H](CO)[C@@H](O)[C@H]3O)[nH]nc12 [FORMYCIN]	2.3	0.03
Nc1ncnc2c([C@H]3C[C@H](O)[C@@H](CO)O3)n[nH]c12	13.5	9.3
